The values that follow come from ChEMBL document CHEMBL3751718, “Synthesis and biological evaluation of lipid-like 5-(2-hydroxyethyl)-4-methyl-1,3-thiazole derivatives as potential anticancer and antimicrobial agents” (Medchemcomm, 2015).

Data set [1] deals with HT-1080. Briefly: Induction of nitric oxide production in human HT1080 cells by Griess assay. The format is functional. Details: concentration or dose not given beside the values. For orientation: The Griess reaction detects nitrite, a stable product of nitric oxide.
Data set [2] deals with Candida albicans. In words: Antifungal activity against Candida albicans MSCL 378 at 10 mg/ml after 48 hrs by agar dish diffusion method. The format is functional. Conditions: MSCL 378, 48 h, read-out: DIZ.
The test system of data set [3] is Proteus mirabilis. Briefly: Antibacterial activity against Proteus mirabilis MSCL 590 at 5 mg/ml after 24 hrs by agar dish diffusion method. The format is functional. Conditions: MSCL 590, 24 h, read-out: DIZ.
The test system of data set [4] is HT-1080. In words: Cytotoxicity against human HT1080 cells assessed as cell viability at 6.25 to 50 ug/ml by crystal violet-based assay. It is filed as functional.
The subject of data set [5] is MG-22A. Briefly: Induction of nitric oxide production in mouse MG-22A cells by Griess assay. The format is functional. Further details: concentration or dose not given beside the values.
Data set [6] has as its system Staphylococcus aureus. Briefly: Antibacterial activity against Staphylococcus aureus MSCL 334 at 10 mg/ml after 24 hrs by agar dish diffusion method. It is filed as functional.
The subject of data set [7] is Pseudomonas aeruginosa. Briefly: Antibacterial activity against Pseudomonas aeruginosa MSCL 331 at 5 mg/ml after 24 hrs by agar dish diffusion method. It is filed as functional.
Data set [8] concerns Pseudomonas aeruginosa. In words: Antibacterial activity against Pseudomonas aeruginosa MSCL 331 at 10 mg/ml after 24 hrs by agar dish diffusion method. The format is functional.
Data set [9] concerns MG-22A. Briefly: Cytotoxicity against mouse MG-22A cells assessed as cell viability at 6.25 to 50 ug/ml by crystal violet-based assay. The format is functional.
In data set [10] the test system is Aspergillus niger. In words: Antifungal activity against Aspergillus niger MSCL 324 at 5 mg/ml after 48 hrs by agar dish diffusion method. It is filed as functional. Conditions: MSCL 324, 48 h, read-out: DIZ.
Data set [11] concerns Candida albicans. Briefly: Antifungal activity against Candida albicans MSCL 378 at 5 mg/ml after 48 hrs by agar dish diffusion method. The format is functional. Conditions: MSCL 378, 48 h, read-out: DIZ.
For data set [12], the system named is Bacillus cereus. Briefly: Antibacterial activity against Bacillus cereus MSCL 330 at 10 mg/ml after 24 hrs by agar dish diffusion method. Conditions: MSCL 330, 24 h, read-out: DIZ. The format is functional.
For data set [13], the system named is Staphylococcus aureus. In words: Antibacterial activity against Staphylococcus aureus MSCL 334 at 5 mg/ml after 24 hrs by agar dish diffusion method. It is filed as functional.
Data set [14] concerns HT-1080. Briefly: Cytotoxicity against human HT1080 cells assessed as cell viability at 6.25 to 50 ug/ml after 72 hrs by MTT assay. It is filed as functional.
Data set [15] has as its system MG-22A. In words: Cytotoxicity against mouse MG-22A cells assessed as cell viability at 6.25 to 50 ug/ml after 72 hrs by MTT assay. It is filed as functional. Background: Formazan colour is commonly taken as a measure of viable cells.
A short description of data set [16]: Cytotoxicity against mouse NIH/3T3 cells assessed as cell viability at 6.25 to 50 ug/ml by neutral red-based assay. Conditions: nih3t3.
The subject of data set [17] is Escherichia coli. In words: Antibacterial activity against Escherichia coli MSCL 332 at 10 mg/ml after 24 hrs by agar dish diffusion method. Conditions: MSCL 332, 24 h, read-out: DIZ. The format is functional.
In data set [18] the test system is Escherichia coli. In words: Antibacterial activity against Escherichia coli MSCL 332 at 5 mg/ml after 24 hrs by agar dish diffusion method. The format is functional. Conditions: MSCL 332, 24 h, read-out: DIZ.
For data set [19], the system named is Bacillus cereus. Briefly: Antibacterial activity against Bacillus cereus MSCL 330 at 5 mg/ml after 24 hrs by agar dish diffusion method. Conditions: MSCL 330, 24 h, read-out: DIZ. It is filed as functional.
For data set [20], the system named is Aspergillus niger. In words: Antifungal activity against Aspergillus niger MSCL 324 at 10 mg/ml after 48 hrs by agar dish diffusion method. The format is functional. Conditions: MSCL 324, 48 h, read-out: DIZ.
The test system of data set [21] is Proteus mirabilis. In words: Antibacterial activity against Proteus mirabilis MSCL 590 at 10 mg/ml after 24 hrs by agar dish diffusion method. The format is functional. Conditions: MSCL 590, 24 h, read-out: DIZ.

Activity calls are given as the source filed them. The calls are words filed in the database; no cut-off is given here.

Consider `Cc1c(CCO)sc[n+]1C.[I-]`, for which the Activity in the data set with HT-1080 [1] turned out to be 2%; in the data set with MG-22A [5], 3%. Further, the zone of inhibition at 10000 µg/mL is 13 mm in the data set with Candida albicans [2]; 8 mm with Bacillus cereus [12]; 10 mm in the data set on Escherichia coli [17]; 15 mm with Aspergillus niger [20]; 8 mm in the data set on Proteus mirabilis [21]. The zone of inhibition at 5000 µg/mL was found to be 8 mm in the data set with Proteus mirabilis [3]; 9 mm with Aspergillus niger [10]; 13 mm with Candida albicans [11]; 10 mm in the data set with Escherichia coli [18]; 8 mm in the data set with Bacillus cereus [19]. The LC50 entry with HT-1080 [4], in the data set with MG-22A [9], in the data set on HT-1080 [14] and in the data set on MG-22A [15] was “inactive” each time. Further, the “diameter of the inhibition zone (DIZ)” value in the data set with Staphylococcus aureus [6], with Pseudomonas aeruginosa [7], with Pseudomonas aeruginosa [8] and with Staphylococcus aureus [13] was “inactive” each time. Besides, in data set [16], the LC50 – broadly, the concentration that kills 50% of the test population – turned out to be 643 µg/mL.

With `Cc1ncsc1CCO`, the Activity with HT-1080 [1] and in the data set on MG-22A [5] was 4% each time. Further, the LC50 entry with HT-1080 [4], with MG-22A [9], in the data set on HT-1080 [14] and with MG-22A [15] was “inactive” throughout.
